# Target: human Thrombin (Homo sapiens, UniProt P00734)
# Test: In vitro assay for inhibition of Thrombin (chromogenic or fluorogenic assay)
# Format: biochemical
# Conditions: Example 2 chromogenic assay, other Examples fluorogenic assay, read-out: thrombin inhibitory Ki
# Procedure: Thrombin inhibitory activity is measured by the ability to inhibit human α-thrombin in a chromogenic assay using N-p-tosyl-gly-pro-lys p-nitroanilide as the chromogenic substrate, or in a fluorogenic assay using Rhodamine 110, bis-(CBZ-L-valyl-L-prolyl-L-arginine amide) as the fluorogenic substrate.
# The compound was diluted from a 10 mM stock solution in dimethylsulfoxide at appropriate concentrations. Assay was performed at room temperature using buffer consisting of: 50 mM HEPES, 150 mM NaCl, 5 mM CaCl2, 0.1% PEG, pH 7.4. containing human Thrombin (final conc. of 1 nM). Compound and enzyme were preincubated for 15 min prior to addition of the substrate (final conc. of 100 μM). The reaction was stopped after 30 min with the addition of soybean trypsin inhibitor or H-D-PHE-PRO-ARG-Chloromethylketone. […] To obtain IC50 values the data were analysed using ActivityBase® and XLfit®.
# Compounds were diluted from a 10 mM stock solution in dimethylsulfoxide at appropriate concentrations. Assay was performed at room temperature using buffer consisting of: 50 mM HEPES, 150 mM NaCl, 5 mM CaCl2, 0.1% PEG, pH 7.4. containing human Thrombin (final conc. Of 0.2 nM). Compound and enzyme were preincubated for 15 min prior to addition of the substrate (final conc. of 10 μM). The reaction was stopped after 3 hrs with the addition of H-D-PHE-PRO-ARG-Chloromethylketone. […] To obtain IC50 values the data were analysed using ActivityBase® and XLfit®.
row,Structure (SMILES),Ki
1,"CN(Cc1ccccc1)C(=O)C[C@@H](C(=O)N1CCOCC1)N1CC[C@H](NS(=O)(=O)CCc2ccc(Cl)s2)C1=O [Example 83, (3S)-3-[(3S)-3-({[2-(5-chloro-2-thienyl)ethyl]sulfonyl)amino)-2-oxo-1-pyrrolidinyl]-N-methyl-4-(4-morpholinyl)-4-oxo-N-(phenylmethyl)butanamide]",< 50 nM
2,"O=C([C@H](Cc1cccs1)N1CC[C@H](NS(=O)(=O)CCc2ccc(Cl)s2)C1=O)N1CCOCC1 [Example 23, 2-(5-chlorothien-2-yl)-N-{(3S)-1-[(1S)-2-morpholin-4-yl-2-oxo-1-(thien-2-ylmethyl)ethyl]-2-oxopyrrolidin-3-yl}ethanesulfonamide]",< 10 nM
3,"Cc1noc(C[C@@H](C(=O)N2CCOCC2)N2CC[C@H](NS(=O)(=O)CCc3ccc(Cl)cc3)C2=O)n1 [Example 82, 2-(4-chlorophenyl)-N-{(3S)-1-[(1S)-1-[(3-methyl-1,2,4-oxadiazol-5-yl)methyl]-2-(4-morpholinyl)-2-oxoethyl]-2-oxo-3-pyrrolidinyl}ethanesulfonamide]",< 100 nM
4,"O=C([C@H](c1ccccc1)N1CC[C@H](NS(=O)(=O)CCc2ccc(Cl)s2)C1=O)N1CCOCC1 [Example 69, 2-(5-chloro-2-thienyl)-N-{(3S)-1-[(1S)-2-(4-morpholinyl)-2-oxo-1-phenylethyl]-2-oxo-3-pyrrolidinyl}ethanesulfonamide]",< 100 nM
5,"C[C@@H](C(=O)N1CCOCC1)N1CC[C@H](NS(=O)(=O)CCc2ccc(Cl)cc2Cl)C1=O [Example 42, 2-(2,4-dichlorophenyl)-N-{(3S)-1-[(1S)-1-methyl-2-morpholin-4-yl-2-oxoethyl]-2-oxopyrrolidin-3-yl}ethanesulfonamide]",< 200 nM
6,"COC[C@@H](C(=O)N1CCOCC1)N1CC[C@H](NS(=O)(=O)CC(C)c2ccc(Cl)s2)C1=O (stereo partly drawn) [Example 58, 2-(5-chloro-2-thienyl)-N-{(3S)-1-[(1S)-1-[(methyloxy)methyl]-2-(4-morpholinyl)-2-oxoethyl]-2-oxo-3-pyrrolidinyl}-1-propanesulfonamide]",< 100 nM
7,"C[C@@H](C(=O)N1CCOCC1)N1CC[C@H](N(C)S(=O)(=O)CCc2ccc(Cl)s2)C1=O [Example 19, 2-(5-Chlorothien-2-yl)-N-methyl-N-{(3S)-1-[(1S)-1-methyl-2-morpholin-4-yl-2-oxoethyl]-2-oxopyrrolidin-3-yl}ethanesulfonamide]",< 50 nM
8,"CCOC[C@@H](C(=O)N1CCOCC1)N1CC[C@H](NS(=O)(=O)CCc2ccc(Cl)cn2)C1=O [Example 49, 2-(5-chloro-2-pyridinyl)-N-{(3S)-1-[(1S)-1-[(ethyloxy)methyl]-2-(4-morpholinyl)-2-oxoethyl]-2-oxo-3-pyrrolidinyl}ethanesulfonamide]",< 25 nM
9,"O=C([C@H](Cc1ncno1)N1CC[C@H](NS(=O)(=O)CCc2ccc(Cl)s2)C1=O)N1CCOCC1 [Example 77, 2-(5-chloro-2-thienyl)-N-{(3S)-1-[(1S)-2-(4-morpholinyl)-1-(1,2,4-oxadiazol-5-ylmethyl)-2-oxoethyl]-2-oxo-3-pyrrolidinyl}ethanesulfonamide]",< 10 nM
10,"CC[C@H](C)[C@@H](C(=O)N1CCOCC1)N1CC[C@H](N(CC(=O)NC)S(=O)(=O)CCc2ccc(Cl)s2)C1=O [Example 39, N^2-{[2-(5-chlorothien-2-yl)ethyl]sulfonyl}-N^1-methyl-N^2-{(3S)-1-[(1S,2S)-2-methyl-1-(morpholin-4-ylcarbonyl)butyl]-2-oxopyrrolidin-3-yl}glycinamide]",< 25 nM
11,"O=C([C@H](CCN1CCCCC1)N1CC[C@H](NS(=O)(=O)CCc2ccc(Cl)s2)C1=O)N1CCOCC1 [Example 94, 2-(5-chloro-2-thienyl)-N-{(3S)-1-[(1S)-1-(4-morpholinylcarbonyl)-3-(1-piperidinyl)propyl]-2-oxo-3-pyrrolidinyl}ethanesulfonamide]",< 100 nM
12,"CC(C)C[C@@H](C(=O)N1CCOCC1)N1CC[C@H](NS(=O)(=O)CCc2ccc(Cl)s2)C1=O [Example 37, 2-(5-chlorothien-2-yl)-N-{(3S)-1-[(1S)-3-methyl-1-(morpholin-4-ylcarbonyl)butyl]-2-oxopyrrolidin-3-yl}ethanesulfonamide]",< 100 nM
13,"CC[C@H](C)[C@@H](C(=O)N1CCOCC1)N1CC[C@H](NS(=O)(=O)CCc2ccc(Br)cc2)C1=O [Example 12, 2-(4-bromophenyl)-N-{(3S)-1-[(1S,2S)-2-methyl-1-(morpholin 4-ylcarbonyl)butyl]-2-oxopyrrolidin-3-yl}ethanesulfonamide]",< 25 nM
14,"Cc1noc(C[C@@H](C(=O)N2CCOCC2)N2CC[C@H](NS(=O)(=O)CCc3ccc(Cl)s3)C2=O)n1 [Example 78, 2-(5-chloro-2-thienyl)-N-{(3S)-1-[(1S)-1-[(3-methyl-1,2,4-oxadiazol-5-yl)methyl]-2-(4-morpholinyl)-2-oxoethyl]-2-oxo-3-pyrrolidinyl}ethanesulfonamide]",< 25 nM
15,"CC[C@H](C)[C@@H](C(=O)N1CCOCC1)N1CC[C@H](N(C)S(=O)(=O)CCc2ccc(Cl)s2)C1=O [Example 38, 2-(5-chlorothien-2-yl)-N-methyl-N-{(3S)-1-[(1S,2S)-2-methyl-1-(morpholin-4-ylcarbonyl)butyl]-2-oxopyrrolidin-3-yl}ethanesulfonamide]",< 10 nM
16,"C[C@@H](C(=O)N1CCOCC1)N1CC[C@H](NS(=O)(=O)CCc2ccc(Cl)cc2)C1=O [Example 4, 2-(4-chlorophenyl)-N-{(3S)-1-[(1S)-1-methyl-2-morpholin-4-yl-2-oxoethyl]-2-oxopyrrolidin-3-yl}ethanesulfonamide]",< 50 nM
17,"CO[C@H](C)[C@@H](C(=O)N1CCOCC1)N1CC[C@H](NS(=O)(=O)CCc2ccc(Cl)s2)C1=O [Example 17, 2-(5-chlorothien-2-yl)-N-{(3S)-1-[(1S,2R)-2-methoxy-1-(morpholin-4-ylcarbonyl)propyl]-2-oxopyrrolidin-3-yl}ethanesulfonamide]",< 10 nM
18,"CC(C)[C@@H](C(=O)N1CCOCC1)N1CC[C@H](NS(=O)(=O)CCc2ccc(Cl)cc2)C1=O [Example 45, 2-(4-chlorophenyl)-N-{(3S)-1-[(1S)-2-methyl-1-(morpholin-4-ylcarbonyl)propyl]-2-oxopyrrolidin-3-yl}ethanesulfonamide]",< 50 nM
19,"COC[C@@H](C(=O)N1CCOCC1)N1CC[C@H](NS(=O)(=O)CC2CCc3cc(Cl)ccc32)C1=O (stereo partly drawn) [Example 62, 1-(5-chloro-2,3-dihydro-1H-inden-1-yl)-N-{(3S)-1-[(1S)-1-[(methyloxy)methyl]-2-(4-morpholinyl)-2-oxoethyl]-2-oxo-3-pyrrolidinyl}methanesulfonamide]",< 200 nM
20,"O=C([C@H](Cc1cccs1)N1CC[C@H](NS(=O)(=O)CCc2ccc(Cl)cc2)C1=O)N1CCOCC1 [Example 24, 2-(4-chlorophenyl)-N-{(3S)-1-[(1S)-2-morpholin-4-yl-2-oxo-1-(thien-2-ylmethyl)ethyl]-2-oxopyrrolidin-3-yl}ethanesulfonamide]",< 25 nM
21,"C[C@@H](C(=O)N1CCOCC1)N1CC[C@H](NS(=O)(=O)CCc2ccc(Cl)cn2)C1=O [Example 47, 2-(5-chloro-2-pyridinyl)-N-{(3S)-1-[(1S)-1-methyl-2-(4-morpholinyl)-2-oxoethyl]-2-oxo-3-pyrrolidinyl}ethanesulfonamide]",< 100 nM

# — patent US20060166985A1, “Pyrrolydin-2-one derivatives as inhibitors of thrombin and factor xa” (priority 2002, published 2006)
